Test results from patent US20230062119A1, “USE OF BIOMARKERS IN IDENTIFYING PATIENTS THAT WILL BE RESPONSIVE TO TREATMENT WITH A PRMT5 INHIBITOR” (Merck Sharp & Dohme LLC, priority 2019, published 2023).

target: T1, Full-length (FL)-PRMT5-MEP50 enzyme complex (Homo sapiens, UniProt O14744); assay: PRMT5-MEP50 Enzyme Methylation Assay; format: biochemical; details: one EC50: 4 parameters single site sigmoidal model; EC50 1: first value of 7 parameters biphasic model; 1.0 nM PRMT5-MEP50, 75 nM biotinylated peptide, 15 μM SAM; read-out: Enzyme Methylation Assay (EC50 or EC50 1)
T1 construct: Full-length (FL)-PRMT5-MEP50 enzyme complex (recombinant proteins from baculovirus-transfected Sf21 cells: FL-PRMT5; MW=73837 kDa and FL-MEP50; MW=38614); made in house; host or cells: baculovirus-transfected Sf21 insect cells
Method: PRMT5-MEP50 biochemical assay is a direct measurement of the methylation activity of the enzyme complex on a short peptide substrate derived from the N-terminus of H4 histone. Methylation experiment is performed with recombinant PRMT5-MEP50 protein complex. The assessment of inhibitory effect of small molecules is measured by the effectiveness of the compounds to inhibit this reaction (EC50).
In this assay, the potency (EC50) of each compound was determined from a twenty-point (1:2 serial dilution; top compound concentration of 100000 nM) titration curve using the following outlined procedure. To each well of a white ProxiPlus 384 well-plate, 100 nL of compound (1% DMSO in final assay volume of 10 μL) was dispensed, followed by the addition of 8 μL of 1× assay buffer (50 mM Bicine pH 8.0, 1 mM DTT, 0.004% Tween20, 0.01% BSA) containing 1.25 nM of Full-length (FL)-PRMT5-MEP50 enzyme complex (recombinant proteins from baculovirus-transfected Sf21 cells: FL-PRMT5; MW=[…] and FL-MEP50; MW=38614) and 1 μL of 150 μM S-(5′-Adenosyl)-L-Methionine Chloride (SAM). Plates were sealed and placed in a 37° C. humidified chamber for a 60 minutes pre-incubation with compound. Subsequently, each reaction was initiated by the addition of 1 μL 1× assay buffer containing 750 nM biotinylated H4R3(Mel) peptide. The final reaction in each well of 10 μL consists of 1.0 nM PRMT5-MEP50, 75 nM biotinylated-peptide, and 15 μM SAM. Methylation reactions proceeded for 150 minutes in a sealed plate at 37° C. Reactions were immediately quenched by the addition of 1 μL of 5% formic acid. Plates were then frozen and shipped to SAMDI™ Tech Inc. to determine the percent conversion from H4R3(Mel) to H4R3(Me2). Dose-response curves were generated by plotting percent effect (% product conversion; Y-axis) vs. Log 10 compound concentrations (X-axis). EC50 values were determined by non-linear regression according to models for either sigmoidal (4 parameters) or biphasic (7 parameters) dose-response curves.

T1 sequence (O14744 whole entry): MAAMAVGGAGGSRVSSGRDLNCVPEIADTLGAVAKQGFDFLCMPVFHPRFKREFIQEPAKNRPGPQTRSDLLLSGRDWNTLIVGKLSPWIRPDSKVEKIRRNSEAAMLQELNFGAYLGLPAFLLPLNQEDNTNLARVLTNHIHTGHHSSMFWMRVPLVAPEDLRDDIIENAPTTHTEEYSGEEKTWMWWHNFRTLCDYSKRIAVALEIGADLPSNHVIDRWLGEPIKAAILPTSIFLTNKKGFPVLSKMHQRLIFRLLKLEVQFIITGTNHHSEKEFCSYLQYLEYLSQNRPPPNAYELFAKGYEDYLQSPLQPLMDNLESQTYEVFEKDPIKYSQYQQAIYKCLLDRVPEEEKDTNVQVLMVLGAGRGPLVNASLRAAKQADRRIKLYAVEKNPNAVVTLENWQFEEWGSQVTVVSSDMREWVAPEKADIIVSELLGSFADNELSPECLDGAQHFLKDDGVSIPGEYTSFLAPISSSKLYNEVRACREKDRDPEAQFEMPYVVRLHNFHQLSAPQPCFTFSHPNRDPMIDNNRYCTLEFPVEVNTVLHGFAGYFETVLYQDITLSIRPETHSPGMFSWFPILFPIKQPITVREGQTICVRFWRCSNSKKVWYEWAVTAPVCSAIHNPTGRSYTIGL
T1 sequence (Q9BQA1 whole entry partner): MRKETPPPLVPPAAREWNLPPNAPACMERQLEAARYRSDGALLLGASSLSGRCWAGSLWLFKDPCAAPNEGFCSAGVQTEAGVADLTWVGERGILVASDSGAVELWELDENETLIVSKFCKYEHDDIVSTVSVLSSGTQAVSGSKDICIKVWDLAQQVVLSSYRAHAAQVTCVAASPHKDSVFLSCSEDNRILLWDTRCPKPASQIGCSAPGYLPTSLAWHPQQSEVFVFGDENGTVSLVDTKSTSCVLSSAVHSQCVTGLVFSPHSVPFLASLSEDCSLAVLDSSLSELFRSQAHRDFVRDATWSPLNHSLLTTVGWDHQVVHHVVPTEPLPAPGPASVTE

SMILES	EC50 [nM]
Cc1cn([C@@H]2C[C@@H]3[C@H](Cc4cc(F)c5cc(F)c(N)nc5c4)CC[C@]3(O)[C@H]2O)c2ncnc(N)c12 [Example 35, (1S,2R,3aR,4S,6aR)-4-[(2-amino-3,5-difluoroquinolin-7-yl)methyl]-2-(4-amino-5-methyl-7H-pyrrolo[2,3-d]pyrimidin-7-yl)hexahydropentalene-1,6a(1H)-diol]	0.5
Cc1ncnc2c1ccn2[C@@H]1C[C@@H]2[C@@H](Cc3ccc4cc(F)c(N)nc4c3)CC[C@]2(O)[C@H]1O [Example 18, (1S,2R,3aR,4R,6aR)-4-((2-amino-3-fluoroquinolin-7-yl)methyl)-2-(4-methyl-7H-pyrrolo[2,3-d]pyrimidin-7-yl)hexahydropentalene-1,6a(1H)-diol]	0.4
Nc1nc2cc(C[C@@H]3OC[C@@]4(O)[C@@H]3O[C@@H](n3ccc5c(N)ncnc53)[C@@H]4O)ccc2cc1Br [Example 136, (2R,3R,3aS,6S,6aR)-6-((2-amino-3-bromoquinolin-7-yl)methyl)-2-(4-amino-7H-pyrrolo[2,3-d]pyrimidin-7-yl)tetrahydrofuro[3,4-b]furan-3,3a(4H)-diol]	0.5
Cc1ncnc2c1ccn2[C@@H]1O[C@@H]2[C@@H](Oc3ccc4cc(F)c(N)nc4c3)CC[C@]2(O)[C@H]1O [Example 86, (2R,3R,3aS,6S,6aR)-6-((2-amino-3-fluoroquinolin-7-yl)oxy)-2-(4-methyl-7H-pyrrolo[2,3-d]pyrimidin-7-yl)hexahydro-3aH-cyclopenta[b]furan-3,3a-diol]	0.5
Cc1ncnc2c1ccn2[C@@H]1C[C@](C)(CCc2ccc3cc(Br)c(N)nc3c2)[C@@H](O)[C@H]1O [Example 109, (1S,2R,3S,5R)-3-(2-(2-amino-3-bromoquinolin-7-yl)ethyl)-3-methyl-5-(4-methyl-7H-pyrrolo[2,3-d]pyrimidin-7-yl)cyclopentane-1,2-diol]	0.7
Cc1nc(N)c2ccn([C@@H]3C[C@@H]4[C@H](Cc5ccc6cc(F)c(N)nc6c5)CC[C@]4(O)[C@H]3O)c2n1 [Example 32, (1S,2R,3aR,4S,6aR)-2-(4-amino-2-methyl-7H-pyrrolo[2,3-d]pyrimidin-7-yl)-4-((2-amino-3-fluoroquinolin-7-yl)methyl)hexahydropentalene-1,6a(1H)-diol 2,2,2-trifluoroacetate]	0.4
Cc1ncnc2c1ccn2[C@@H]1O[C@@H]2[C@@H](Oc3ccc4cc(Br)c(N)nc4c3)CC[C@]2(O)[C@H]1O [Example 7, (2R,3R,3aS,6S,6aR)-6-((2-amino-3-bromoquinolin-7-yl)oxy)-2-(4-methyl-7H-pyrrolo[2,3-d]pyrimidin-7-yl)hexahydro-2H-cyclopenta[b]furan-3,3a-diol]	0.7
CNc1ncnc2c1c(F)cn2[C@@H]1O[C@@H]2[C@H](Cc3ccc4cc(Br)c(N)nc4c3)CC[C@]2(O)[C@H]1O [Example 96, (2R,3R,3aS,6S,6aR)-6-((2-amino-3-bromoquinolin-7-yl)methyl)-2-(5-fluoro-4-(methylamino)-7H-pyrrolo[2,3-d]pyrimidin-7-yl)hexahydro-3aH-cyclopenta[b]furan-3,3a-diol]	0.8
Nc1nc2cc(O[C@H]3CC[C@@]4(O)[C@@H]3O[C@@H](n3ccc5c(N)ncnc53)[C@@H]4O)ccc2cc1F [Example 71, (2R,3R,3aS,6S,6aR)-6-((2-amino-3-fluoroquinolin-7-yl)oxy)-2-(4-amino-7H-pyrrolo[2,3-d]pyrimidin-7-yl)hexahydro-3aH-cyclopenta[b]furan-3,3a-diol]	1.6
Nc1nc2cc(C[C@@H]3CC[C@@]4(O)[C@@H]3O[C@@H](n3ccc5c(N)ncnc53)[C@@H]4O)ccc2cc1C(F)F [Example 137, (2R,3R,3aS,6S,6aR)-6-((2-amino-3-(difluoromethyl)quinolin-7-yl)methyl)-2-(4-amino-7H-pyrrolo[2,3-d]pyrimidin-7-yl)hexahydro-2H-cyclopenta[b]furan-3,3a-diol]	0.5
Cc1ncnc2c1ccn2[C@@H]1O[C@@H]2[C@@H](Cc3ccc4cc(Br)c(N)nc4c3)OC[C@]2(O)[C@H]1O [Example 134, (2R,3R,3aS,6R,6aR)-6-((2-amino-3-bromoquinolin-7-yl)methyl)-2-(4-methyl-7H-pyrrolo[2,3-d]pyrimidin-7-yl)tetrahydrofuro[3,4-b]furan-3,3a(4H)-diol]	3.5
Nc1nc2cc(O[C@H]3CC[C@@]4(O)[C@@H]3O[C@@H](n3ccc5c(N)ncnc53)[C@@H]4O)ccc2cc1Br [Example 6, (2R,3R,3aS,6S,6aR)-6-((2-amino-3-bromoquinolin-7-yl)oxy)-2-(4-amino-7H-pyrrolo[2,3-d]pyrimidin-7-yl)hexahydro-2H-cyclopenta[b]furan-3,3a-diol]	0.6

The next molecules have a lower EC50 than those just listed; values first:

EC50 [nM]	SMILES
0.3	Nc1nc2cc(C[C@@H]3CC[C@@]4(O)[C@@H]3O[C@@H](n3ccc5c(N)ncnc53)[C@@H]4O)ccc2cc1F [Example 124, (2R,3R,3aS,6S,6aR)-6-((2-amino-3-fluoroquinolin-7-yl)methyl)-2-(4-amino-7H-pyrrolo[2,3-d]pyrimidin-7-yl)hexahydro-3aH-cyclopenta[b]furan-3,3a-diol]
0.2	Cc1ncnc2c1ccn2[C@@H]1O[C@@H]2[C@H](Cc3ccc4ccc(N)nc4c3)CC[C@]2(O)[C@H]1O [Example 107, (2R,3R,3aS,6S,6aR)-6-((2-aminoquinolin-7-yl)methyl)-2-(4-methyl-7H-pyrrolo[2,3-d]pyrimidin-7-yl)hexahydro-2H-cyclopenta[b]furan-3,3a-diol]
0.3	Cc1ncnc2c1ccn2[C@@H]1C[C@@H]2[C@H](Cc3ccc4cc(Cl)c(N)nc4c3)CC[C@]2(O)[C@H]1O [Example 17, (1S,2R,3aR,4S,6aR)-4-((2-amino-3-chloroquinolin-7-yl)methyl)-2-(4-methyl-7H-pyrrolo[2,3-d]pyrimidin-7-yl)hexahydropentalene-1,6a(1H)-diol]
0.3	Nc1nc2cc(C[C@H]3[C@H]4O[C@@H](n5ccc6c(N)ncnc65)[C@H](O)[C@@]4(O)C[C@@H]3F)ccc2cc1F [Example 54, (2R,3R,3aS,5S,6S,6aR)-6-[(2-amino-3-fluoroquinolin-7-yl)methyl]-2-(4-amino-7H-pyrrolo[2,3-d]pyrimidin-7-yl)-5-fluorohexahydro-3aH-cyclopenta[b]furan-3,3a-diol]
0.3	Cc1cn([C@@H]2C[C@@H]3[C@H](Cc4ccc5cc(F)c(N)nc5c4)CC[C@]3(O)[C@H]2O)c2ncnc(N)c12 [Example 38, (1S,2R,3aR,4S,6aR)-4-((2-amino-3-fluoroquinolin-7-yl)methyl)-2-(4-amino-5-methyl-7H-pyrrolo[2,3-d]pyrimidin-7-yl)hexahydropentalene-1,6a(1H)-diol]
0.3	Cc1nc(N)c2ccn([C@@H]3C[C@@H]4[C@H](Cc5ccc6cc(Br)c(N)nc6c5)CC[C@]4(O)[C@H]3O)c2n1 [Example 37, (1S,2R,3aR,4S,6aR)-2-(4-amino-2-methyl-7H-pyrrolo[2,3-d]pyrimidin-7-yl)-4-((2-amino-3-bromoquinolin-7-yl)methyl)hexahydropentalene-1,6a(1H)-diol]
0.3	Cc1cc2ccc(OC[C@H]3C[C@@H](n4ccc5c(C)ncnc54)[C@H](O)[C@]3(C)O)cc2nc1N [Example 106, (1R,2S,3R,5R)-5-(((2-amino-3-methylquinolin-7-yl)oxy)methyl)-1-methyl-3-(4-methyl-7H-pyrrolo[2,3-d]pyrimidin-7-yl)cyclopentane-1,2-diol]

same assay, conditions: second EC50 of 7 parameters biphasic model; 1.0 nM PRMT5-MEP50, 75 nM biotinylated peptide, 15 μM SAM; read-out: Enzyme Methylation Assay (EC50 2)

SMILES	EC50 [nM]
Cc1ncnc2c1ccn2[C@@H]1C[C@@H]2[C@@H](Cc3ccc4cc(F)c(N)nc4c3)CC[C@]2(O)[C@H]1O [Example 18, (1S,2R,3aR,4R,6aR)-4-((2-amino-3-fluoroquinolin-7-yl)methyl)-2-(4-methyl-7H-pyrrolo[2,3-d]pyrimidin-7-yl)hexahydropentalene-1,6a(1H)-diol]	229
Cc1ncnc2c1ccn2[C@@H]1O[C@@H]2[C@@H](Oc3ccc4cc(F)c(N)nc4c3)CC[C@]2(O)[C@H]1O [Example 86, (2R,3R,3aS,6S,6aR)-6-((2-amino-3-fluoroquinolin-7-yl)oxy)-2-(4-methyl-7H-pyrrolo[2,3-d]pyrimidin-7-yl)hexahydro-3aH-cyclopenta[b]furan-3,3a-diol]	63.8
